Consider two compounds from patent US8591966B2, “Composition containing oils of chamomile flower and black cumin with reduced endotoxins” (Insignion Holdings Limited, priority 2007, dated 2013).

What all share (type): cell-based
Assay [1] concerns the target T1, 5-LOX (Homo sapiens, UniProt P09917).
T1 construct: endogenous in cells; host or cells: HL-60 (human myeloid leukemia, DSMZ ACC 3), differentiated with DMSO
T1 sequence (P09917 1-674): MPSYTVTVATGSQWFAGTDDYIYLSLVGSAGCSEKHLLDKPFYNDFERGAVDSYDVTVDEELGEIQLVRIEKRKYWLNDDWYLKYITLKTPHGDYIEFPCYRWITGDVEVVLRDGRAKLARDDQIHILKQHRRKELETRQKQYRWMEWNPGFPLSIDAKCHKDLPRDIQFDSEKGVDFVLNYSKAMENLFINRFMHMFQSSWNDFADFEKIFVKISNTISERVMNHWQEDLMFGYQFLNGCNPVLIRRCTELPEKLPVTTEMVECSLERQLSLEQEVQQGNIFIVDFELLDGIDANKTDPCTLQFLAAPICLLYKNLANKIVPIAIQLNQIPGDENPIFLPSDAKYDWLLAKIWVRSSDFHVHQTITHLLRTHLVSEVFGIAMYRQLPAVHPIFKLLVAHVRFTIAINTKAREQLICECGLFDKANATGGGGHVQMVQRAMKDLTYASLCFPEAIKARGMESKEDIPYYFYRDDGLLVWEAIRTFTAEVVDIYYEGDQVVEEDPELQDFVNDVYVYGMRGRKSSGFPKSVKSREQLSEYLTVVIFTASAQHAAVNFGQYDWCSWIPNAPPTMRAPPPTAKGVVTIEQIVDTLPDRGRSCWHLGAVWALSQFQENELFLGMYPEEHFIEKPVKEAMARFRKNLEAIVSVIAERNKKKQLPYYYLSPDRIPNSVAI
In words: 5-LOX inhibition assay (LTB4) in differentiated HL-60 granulocytes. Conditions: reference listed under the 5-LOX IC50 table. The procedure:
Human HL-60 cells (myeloid leukemia, DSMZ No ACC 3) were kept at 37° C. in a humidified atmosphere with 5% CO2 and cultured in complete RPMI1640 medium supplemented with 10% fetal calf serum and 1% (v/v) penicillin/streptomycin solution. Cells were differentiated for 6 to 8 days with DMSO (1.2% v/v). The 5-LOX activity assay was carried out as described by Bennet et al. [ref: 2]. Briefly, differentiated cells were harvested, suspended in PBS containing Ca^2+ (1 mM) and glucose (1 mM) and distributed into a 96-well microtiter plate (1×10^6 cells/well).
After preincubation with sample or vehicle for 15 min at room temperature the reaction was started by adding calcium ionophore A 23187 (5 uM) and arachidonic acid (10 uM). All values are final concentrations. […] After neutralization with 50 μl PBS and centrifugation (340×g) for 10 min the LTB4 concentration in the supernatant was determined.
Effects of samples and reference compound [ref: 3] on the activity of 5-LOX were measured by determining the quantity of leukotriene B4 produced under assay conditions. The quantification of leukotriene B4 was performed with Enzyme Immuno Assay (EIA) Kit from Cayman No 520111 (LTB4). The optical densities were measured at wavelength=415 nm. The quantities were calculated using a standard curve of at least 5 different concentrations. Sample points were measured as duplicates. […]

Assay [2] has as its system prostate cancer cells DU145. Description: DNA synthesis (3H-thymidine incorporation) in DU145. Conditions: Homo sapiens, DU-145. As for the experimental part:
(§1) ^3H-Thymidine incorporation: DU145 and U-87MG cells were harvested by trypsinisation and seeded at 10,000 cells/well in a 96 well plate. The cells were incubated with the samples at the required concentrations for 24 hrs and/or 48 hrs at 37° C. and 5% CO2. The cells were pulsed with ^3H-Thymidine (1 μCi/ml) (Perkin Elmer) for 24 hours. After which, they were washed with PBS and fixed twice with methanol for 5 min. The protein was precipitated by 0.3N TCA. After a washing step 150 μl 0.3N NaOH was added for 15 min to lyse the cells. Back ground controls were measured with the samples without cells.
(§2) To detect the incorporated ^3H-Thymidine for the DNA synthesis the samples were transferred in scintillation tubes with scintillation cocktail. The quantification was performed in a Tri-Carb 1900 TR liquid scintillation counter (Packard, USA).
(§3) The effect of several concentrations of samples was measured by determining amount of radiolabel (dpm) under the assay conditions. Dose related values were expressed as a percentage of the positive control values. Sample points were measured as quadruplicates, errors are expressed as standard deviations.

The subject of assay [3] is glioblastoma cells U-87 MG. Description: DNA synthesis (3H-thymidine incorporation) in U-87MG. The settings on record: Homo sapiens, 48 h incubation. As for the experimental part: as §1, §2, §3
In general terms: Incorporation of labelled thymidine or its analogues reports DNA synthesis.

Like-named read-outs stand apart in the source and are kept apart here.

In turn, `C[C@@H]1C[C@H]2[C@@H]3CCC4=CC(=O)C=C[C@]4(C)[C@@]3(F)[C@@H](O)C[C@]2(C)[C@@]1(O)C(=O)CO` [Dexamethasone] came in with a half-inhibitory concentration (IC50) in assay [1] of 0.28 nM.
In the case of `CC[C@@]1(O)C(=O)OCc2c1cc1n(c2=O)Cc2cc3ccccc3nc2-1` [Camptothecin], the IC50 in assay [2] (DU145, 24 h incubation, read-out: IC50 (nM) on DNA synthesis, 24 h incubation) worked out at 152 nM; in assay [2] (DU145, 48 h incubation, read-out: IC50 (nM) on DNA synthesis, 48 h incubation), 7.5 nM; in assay [3], 3.32 nM.

In general, IC50 refers to the concentration needed to halve the response being measured.
